Laboratory results: patent US7199286B2, “Plant-derived novel pathogen and SAR-induction chemical induced promoters, and fragments thereof” (Syngenta Participations AG, priority 1999, dated 2007)

System: NI16 promoter fragment 962 bp
Assay: GUS florescence assay of promoter::GUS plants after SA application, NI16 962 bp fragment
Format: in vivo, Arabidopsis
Conditions: 5 mM SA spray
Source text: A binary promoter::reporter plasmid (pNOV2374) for Arabidopsis transformation was constructed. The regulatory/promoter sequence was fused to the GUS reporter gene (Jefferson et al. (1987) EMBO J 6: 3901-3907) by recombination using […] Technology according to the manufacturer's protocol as described in the Instruction Manual (LifeTechnologies, Rockville, Md.). The construct was then transformed into Agrobacterium tumefaciens strains by electroporation. pNOV2374 is a binary vector with a VS1 origin of replication, a copy of the Agrobacterium virg gene in the backbone, and a Basta® resistance selectable marker cassette between the left and right border sequences of the T-DNA. The Basta® selectable marker cassette comprises the Agrobacterium tumefaciens manopine synthase promoter (AtMas) (Barker et al., Plant Mol. Biol. 2, 335-350 (1983)) operably linked to the gene encoding Basta® resistance (i.e., the “BAR” gene, phosphinothricin acetyl transferase) (White et al., Nucl Acids Res 18: 1062 (1990)) and the 35S terminator. The AtMas promoter, the BAR coding sequence, and the 35S terminator are located at nt 4211 to nt 4679, nt 4680 to nt 5228, and nt 5263 to nt 5488, respectively, of pNOV2374. The vector contains […] recombination components, which were introduced into the binary vector backbone by ligating a blunt-ended cassette containing attR sites, ccdB, and a cholramphenicol resistance marker using the […] Vector Conversion System (LifeTechnologies, Rockville, Md.). The […] cassette was located between nt 126 and 1818 of pNOV2374. The promoter cassettes were inserted through an LR recombination reaction whereby the DNA sequence of pNOV2374 between nt 126 and nt 1818 were removed and replaced with the promoter of interest flanked by att sequences. […] The GIG gene (SEQ ID NO:29) contains the ST-LS1 intron from Solanum tuberosum at nt 385 to nt 576 of GUS (obtained from Dr. Stanton […], Purdue University, and described in Narasimhulu, et al. (1996) Plant Cell 8: 873-886.). […] The treatment was applied as a fine mist to the leaves. […] For quantitative analysis of promoter activity following induction treatments or in various Arabidopsis tissues and organs, GUS expression is measured florometrically. Tissue samples were harvested and ground in ice cold GUS extraction buffer (50 mM Na2HPO4 pH 7.0, 5 mM DTT, 1 mM Na2EDTA, 0.1% TritonX100, 0.1% sarcosyl). Ground samples were spun in a microfuge at 10,000 rpm for 15 minutes at 4° C. Following centrifugation, the supernatant was removed for the GUS assay and for a protein concentration determination. To measure GUS activity, the plant extract was assayed in GUS assay buffer (50 mM Na2HPO4 pH 7.0, 5 mM DTT, 1 mM Na2EDTA, 0.1% TritonX100, 0.1% sarcosyl, 1 mM 4-Methylumbelliferyl-beta-D-glucuronic acid dihydrate (MUG)), pre-warmed to 37° C. Reactions were incubated, and 100 uL aliquots were removed at 10 minute intervals over 30 minutes to stop the reaction by adding the 100 uL aliquots to tubes containing 900 uL of 2% Na2CO3. The stopped reactions were then read on a Tecan Spectroflourometer at 365 nm excitation and 455 emission wavelengths. Protein concentrations were determined using the BCA assay following the manufacturer's protocol. GUS activity is expressed as pmol MU/mg protein/min.

## O=C(O)c1ccccc1O [SA, salicylic acid]
2 h
  GUS Activity Induced by SA: 86.8 pmol/mg protein/min
  GUS activity Fold-change relative to T0 (uninduced): 2.2 fold
4 h
  GUS Activity Induced by SA: 260.8 pmol/mg protein/min
  GUS activity Fold-change relative to T0 (uninduced): 6.6 fold
8 h
  GUS Activity Induced by SA: 467.7 pmol/mg protein/min
24 h
  GUS Activity Induced by SA: 1457.5 pmol/mg protein/min
  GUS activity Fold-change relative to T0 (uninduced): 36.7 fold
